Assay results reported in article PMC12910498 (ACS pharmacology & translational science, 2026).

Experiments:
human D2R long isoform = human D2R long isoform (Homo sapiens, UniProt P14416); assay: DiscoverX PathHunter β-arrestin recruitment assay, D2R
D5 = target: T1, D5 (Homo sapiens, UniProt P21918); assay: PDSP primary screen, D5; assay type: binding; conditions: 10 µM compound
T1 construct: Psychoactive Drug Screening Program (PDSP)
Source text: Receptor Primary Secondary Primary Secondary Primary Secondary Primary Secondary screen assay screen assay screen assay screen assay […]
inhibition in primary assessment.

human D2LR = human D2LR (Homo sapiens, UniProt P14416); assay: biochemical
Sequence of human D2LR (P14416 whole entry): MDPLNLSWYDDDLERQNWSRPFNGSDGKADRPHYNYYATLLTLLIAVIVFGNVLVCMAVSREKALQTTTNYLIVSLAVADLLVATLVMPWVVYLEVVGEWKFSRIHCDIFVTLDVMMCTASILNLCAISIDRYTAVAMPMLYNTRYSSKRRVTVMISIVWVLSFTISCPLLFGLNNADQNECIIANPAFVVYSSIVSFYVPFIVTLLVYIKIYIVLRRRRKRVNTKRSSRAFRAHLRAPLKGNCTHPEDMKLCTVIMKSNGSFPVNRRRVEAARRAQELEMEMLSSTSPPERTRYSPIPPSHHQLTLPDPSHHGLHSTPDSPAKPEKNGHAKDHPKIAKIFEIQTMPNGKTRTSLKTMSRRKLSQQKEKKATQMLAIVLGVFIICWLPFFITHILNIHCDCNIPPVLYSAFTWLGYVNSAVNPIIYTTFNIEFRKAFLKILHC

human D3R = human D3R (Homo sapiens, UniProt P35462); assay: biochemical
Sequence of human D3R (P35462 whole entry): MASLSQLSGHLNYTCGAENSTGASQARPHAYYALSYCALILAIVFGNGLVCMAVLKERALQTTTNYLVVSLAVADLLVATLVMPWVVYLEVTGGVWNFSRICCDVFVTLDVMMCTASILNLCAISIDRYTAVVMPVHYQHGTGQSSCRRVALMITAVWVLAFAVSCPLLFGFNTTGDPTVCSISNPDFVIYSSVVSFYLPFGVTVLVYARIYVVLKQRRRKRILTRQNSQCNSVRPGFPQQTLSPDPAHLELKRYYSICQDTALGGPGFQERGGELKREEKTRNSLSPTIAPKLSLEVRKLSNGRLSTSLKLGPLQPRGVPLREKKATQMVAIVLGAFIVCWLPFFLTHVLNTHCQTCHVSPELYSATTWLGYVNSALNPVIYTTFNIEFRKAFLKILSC

human D4R = target: T2, human D4R (Homo sapiens, UniProt P21917); assay: [3H]N-methylspiperone radioligand competition binding, hD4R membranes
T2 sequence (P21917 1-419): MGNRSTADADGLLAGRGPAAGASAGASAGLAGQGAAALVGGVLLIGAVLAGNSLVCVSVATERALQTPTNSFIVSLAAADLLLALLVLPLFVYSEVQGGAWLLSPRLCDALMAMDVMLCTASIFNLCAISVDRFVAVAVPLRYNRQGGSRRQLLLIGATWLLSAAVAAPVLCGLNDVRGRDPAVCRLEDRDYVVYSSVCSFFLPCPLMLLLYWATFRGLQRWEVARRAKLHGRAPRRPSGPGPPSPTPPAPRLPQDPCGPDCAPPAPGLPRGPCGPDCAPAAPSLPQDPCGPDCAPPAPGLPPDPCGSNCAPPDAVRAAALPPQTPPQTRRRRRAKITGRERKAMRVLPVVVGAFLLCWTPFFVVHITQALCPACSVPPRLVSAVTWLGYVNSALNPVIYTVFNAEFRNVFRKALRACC

Sequence of human D2R long isoform (P14416 whole entry, canonical isoform): as the sequence (P14416 whole entry) above
T1 sequence (P21918 whole entry): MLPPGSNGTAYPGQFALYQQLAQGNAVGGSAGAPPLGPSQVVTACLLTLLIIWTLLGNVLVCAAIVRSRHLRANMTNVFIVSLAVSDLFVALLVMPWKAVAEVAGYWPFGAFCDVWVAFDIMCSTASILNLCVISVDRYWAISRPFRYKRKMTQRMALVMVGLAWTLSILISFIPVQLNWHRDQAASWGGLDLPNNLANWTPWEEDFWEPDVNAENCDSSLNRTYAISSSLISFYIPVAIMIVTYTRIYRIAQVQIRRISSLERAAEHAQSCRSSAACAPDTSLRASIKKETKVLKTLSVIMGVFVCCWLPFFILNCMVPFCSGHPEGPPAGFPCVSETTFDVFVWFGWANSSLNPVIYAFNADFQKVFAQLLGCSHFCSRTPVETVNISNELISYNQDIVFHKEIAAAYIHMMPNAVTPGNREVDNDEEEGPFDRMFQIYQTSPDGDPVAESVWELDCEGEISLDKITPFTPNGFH

For `Cc1cccc(-n2cc(CN3CCN(c4cccc5ccccc45)CC3)nn2)c1` [Compound 18, 1-(Naphthalen-1-yl)-4-((1-(m-tolyl)-1H-1,2,3-triazol-4-yl)methyl)piperazine], which IC50 (human D2R long isoform) is on record?
Its IC50 is 4.7 ± 1.1 µM.

What about the “D2R Ant (%)” value (human D2R long isoform; antagonist mode, EC80 dopamine (1 μM), normalized to spiperone) of the same molecule?
Its value is 87.8 ± 26.7%.

What about the inhibition at 10 µM (D5) of the same molecule?
The inhibition at 10 µM was 25.7%.

And the Ki (human D2LR)?
Its Ki is 6.54 ± 5.37 µM.

And the Ki (human D3R)?
Its Ki is 10.8 µM.

And the Ki (human D4R)?
Its Ki is 0.00433 ± 0.00102 µM.

And the “Selectivity D2R/D4R” value (human D4R; ratio of Ki values)?
Its value is 1510.

What about the “Selectivity D3R/D4R” value (human D4R; ratio of Ki values) of the same molecule?
Its value is 2504.
